From patent publication US20220071971A1, “MACROCYCLIC COMPOUNDS AND THEIR USE IN THE TREATMENT OF DISEASE” (NOVARTIS AG, priority 2018, published 2022)

Molecular target: T1, delF508-CFTR (Homo sapiens, UniProt P13569, DEL508-508)
T1 construct: expressed in transfected cells
Test: Measurement of delF508-CFTR-HRP surface expression in CFBE41o- cells
Assay type: cell-based
Settings: for EC50: HRP-tagged delF508-CFTR surface expression, CFBE41o- cells, 24 h with compound, 10-point curve, highest concentration 10 μM; for Emax: CFBE41o-, efficacy relative to reference compound 3-(6-(1-(2,2-difluorobenzo[d][1,3]dioxol-5-yl)cyclopropane-1-carboxamido)-3-methylpyridin-2-yl)benzoic acid, read-out: DelF508-CFTR-HRP Amax %
Excerpt: Measurement of deIF508-CFTR-HRP Surface Expression in CFBE41o-Cells
This assay quantifies the cell surface expressions of the mutant CFTR channel using an extracellular HRP tag.
A cellular assay was developed to measure surface expression of horseradish peroxidase (HRP) tagged delF508-CFTR in the human bronchial epithelial immortalized CFBE41o-cell line (Phuan, P. W., et al, (2014) Molecular Pharmacology 86:42-51). Specifically, the HRP sequence was inserted into the fourth extracellular loop of delF508-CFTR and stably expressed in CFBE41o-cells. Cells were seeded in 384 well plate at a density of 5000 cells/well and incubated at 37° C. for 12 to 24 hours in medium (Gibco MEM #11095, 10% FBS, 10 mM HEPES, […], 200 μg/mL G418, 3 μg/mL Puromycin). The delF508-CFTR-HRP expression was induced with 500 ng/mL doxycycline (Sigma D-9891, dissolved in H2O and sterile filtered) in medium and the cells were incubated at 37° C. for 48 h. Old medium was removed and fresh medium was added containing 500 ng/mL doxycycline and unknown test compound at required test concentration in DMSO, not exceeding 0.5% final DMSO concentration. The highest concentration tested was 10 μM with a 10-point concentration response curve using a 3-fold dilution. After addition of compounds, the cells were incubated for 24 h at 37° C. On the final day, cells were washed four times in PBS containing 1 mM MgCl2 and 0.1 mM CaCl2. HRP-Substrate (SuperSignal ELISA Pico, Fisher #37069) 20 μl/well was added and the luminescence signal was determined (Viewlux, Perkin Elmer). Light was emitted upon addition of exogenous HRP-Substrate only when delF508-CFTR-HRP reached the cell surface and the HRP tag was accessible to the HRP-Substrate (note: HRP-Substrate cannot cross the lipid bilayer to reach delF508-CFTR-HRP misfolded within the cell).
The median activity for the lowest concentration of the compounds on each assay plate was calculated and this value was used to normalize the signal for each well on the respective plate. Three replicates at each concentrations for every compound were run to determine one EC50. The median value was determined and used to calculate compound activities as described below. Effective half maximal values (EC50) were calculated for each compound by performing logistic regression on measured dose-response data points using the equation: […]
where “Y” is the observed activity, “Bottom” is the lowest observed value, “Top” is the highest observed value, and the “Hill coefficient” gives the largest absolute value of the slope. The curve fitting is carried out by a curve fitting program implemented at GNF using Matlab (Mathworks).
The dose response curves also were used to calculate Fold Change (FC) using the equation: […]
Compound efficacy relative to the reference compound 3-(6-(1-(2,2-difluorobenzo[d][1,3]dioxol-5-yl)cyclopropane-1-carboxamido)-3-methylpyridin-2-yl)benzoic acid was determined using the following formula: […]

T1 sequence (P13569 with tags, fused parts or gaps DEL508-508): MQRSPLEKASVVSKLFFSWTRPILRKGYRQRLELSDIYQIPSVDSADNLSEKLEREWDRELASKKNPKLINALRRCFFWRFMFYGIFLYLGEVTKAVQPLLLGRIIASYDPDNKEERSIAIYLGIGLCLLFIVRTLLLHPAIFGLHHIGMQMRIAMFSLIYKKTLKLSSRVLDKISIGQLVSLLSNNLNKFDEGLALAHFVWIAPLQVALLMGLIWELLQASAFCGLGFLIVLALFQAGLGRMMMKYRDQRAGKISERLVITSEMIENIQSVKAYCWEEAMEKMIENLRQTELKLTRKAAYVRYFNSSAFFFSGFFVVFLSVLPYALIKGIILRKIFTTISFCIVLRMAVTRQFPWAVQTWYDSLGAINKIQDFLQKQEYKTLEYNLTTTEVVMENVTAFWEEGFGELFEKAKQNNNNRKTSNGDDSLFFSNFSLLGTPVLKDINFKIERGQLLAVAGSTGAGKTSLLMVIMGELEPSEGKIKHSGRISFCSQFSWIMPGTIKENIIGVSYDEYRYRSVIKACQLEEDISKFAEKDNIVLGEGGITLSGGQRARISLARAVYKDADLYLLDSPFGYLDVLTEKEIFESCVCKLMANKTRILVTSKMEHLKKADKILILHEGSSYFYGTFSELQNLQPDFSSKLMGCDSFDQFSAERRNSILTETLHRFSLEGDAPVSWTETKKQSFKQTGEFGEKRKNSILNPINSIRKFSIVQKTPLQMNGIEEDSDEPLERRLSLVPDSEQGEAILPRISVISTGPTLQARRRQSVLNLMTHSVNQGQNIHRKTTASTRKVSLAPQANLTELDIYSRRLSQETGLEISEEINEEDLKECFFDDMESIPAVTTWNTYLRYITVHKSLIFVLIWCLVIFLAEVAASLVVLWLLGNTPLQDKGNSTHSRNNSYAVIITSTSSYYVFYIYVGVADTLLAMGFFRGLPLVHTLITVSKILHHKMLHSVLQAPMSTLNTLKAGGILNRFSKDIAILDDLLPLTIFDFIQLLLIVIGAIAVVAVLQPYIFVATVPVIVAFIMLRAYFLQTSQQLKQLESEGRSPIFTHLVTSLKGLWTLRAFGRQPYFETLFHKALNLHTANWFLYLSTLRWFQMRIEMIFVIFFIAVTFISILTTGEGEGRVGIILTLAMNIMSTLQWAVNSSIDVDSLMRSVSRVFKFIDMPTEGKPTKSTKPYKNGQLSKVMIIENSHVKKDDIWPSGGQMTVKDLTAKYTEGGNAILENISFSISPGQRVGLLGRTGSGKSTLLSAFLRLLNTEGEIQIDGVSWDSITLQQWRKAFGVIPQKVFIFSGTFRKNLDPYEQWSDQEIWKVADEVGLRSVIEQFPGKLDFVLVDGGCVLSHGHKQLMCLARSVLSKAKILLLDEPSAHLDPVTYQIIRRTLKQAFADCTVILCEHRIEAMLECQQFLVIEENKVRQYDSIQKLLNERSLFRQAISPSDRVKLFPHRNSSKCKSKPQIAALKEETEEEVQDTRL

Compound | EC50 [µM] | Emax [%]
O=S1(=O)Nc2ccc(C(F)(F)F)c(n2)-c2ccccc2CCCCCCN(CCCCCO)c2cccc1n2 [Compound 12, 6-(5-hydroxypentyl)-2^3-(trifluoromethyl)-4-thia-3,6-diaza-2,5(2,6)-dipyridina-1(1,2)-benzenacyclododecaphane 4,4-dioxide] | 0.236 | –
O=S1(=O)Nc2ccc(C(F)(F)F)c(n2)-c2ccccc2CCCCCN(CCN2CCOCC2)c2cccc1n2 [Compound 13, 6-(2-morpholinoethyl)-2^3-(trifluoromethyl)-4-thia-3,6-diaza-2,5(2,6)-dipyridina-1(1,2)-benzenacycloundecaphane 4,4-dioxide] | 0.393 | 601
O=S1(=O)Nc2ccc(C(F)(F)F)c(n2)-c2ccccc2CCCCCN(CCOCCCO)c2cccc1n2 [Compound 14, 6-(2-(3-hydroxypropoxy)ethyl)-2^3-(trifluoromethyl)-4-thia-3,6-diaza-2,5(2,6)-dipyridina-1(1,2)-benzenacycloundecaphane 4,4-dioxide] | 0.334 | 489
O=S1(=O)Nc2ccc(C(F)(F)F)c(n2)-c2ccccc2CCCCCN(CCCCCO)c2cccc1n2 [Compound 15, 6-(5-hydroxypentyl)-2^3-(trifluoromethyl)-4-thia-3,6-diaza-2,5(2,6)-dipyridina-1(1,2)-benzenacycloundecaphane 4,4-dioxide] | 0.304 | 708
O=S1(=O)Nc2ccc(C(F)(F)F)c(n2)-c2ccccc2CCCCCCN(CCCCO)c2cccc1n2 [Compound 16, 6-(4-hydroxybutyl)-2^3-(trifluoromethyl)-4-thia-3,6-diaza-2,5(2,6)-dipyridina-1(1,2)-benzenacyclododecaphane 4,4-dioxide] | 0.303 | –
CCN1CCCCCc2ccccc2-c2nc(ccc2C(F)(F)F)NS(=O)(=O)c2cccc1n2 [Compound 18, 6-ethyl-2^3-(trifluoromethyl)-4-thia-3,6-diaza-2,5(2,6)-dipyridina-1(1,2)-benzenacycloundecaphane 4,4-dioxide] | 0.645 | 802
Cc1ccc2nc1-c1ccccc1CCCCCN(CCCCO)c1cccc(n1)S(=O)(=O)N2 [Compound 19, 6-(4-hydroxybutyl)-2^3-methyl-4-thia-3,6-diaza-2,5(2,6)-dipyridina-1(1,2)-benzenacycloundecaphane 4,4-dioxide] | 1.62 | 490
O=S1(=O)Nc2ccc(C(F)(F)F)c(n2)-c2cc(F)ccc2OCCCCN(CCCCO)c2cccc1n2 [Compound 23, 1^5-fluoro-6-(4-hydroxybutyl)-2^3-(trifluoromethyl)-11-oxa-4-thia-3,6-diaza-2,5(2,6)-dipyridina-1(1,2)-benzenacycloundecaphane 4,4-dioxide] | 0.69 | 592
O=S1(=O)Nc2ccc(Cl)c(n2)-c2ccccc2CCCCCN(CCCO)c2cccc1n2 [Compound 24, 2^3-chloro-6-(3-hydroxypropyl)-4-thia-3,6-diaza-2,5(2,6)-dipyridina-1(1,2)-benzenacycloundecaphane 4,4-dioxide] | 0.165 | 448
O=S1(=O)Nc2ccc(C(F)(F)F)c(n2)-c2ccccc2CCCCCN(CCCCO)c2cccc1n2 [Compound 25, 6-(4-hydroxybutyl)-2^3-(trifluoromethyl)-4-thia-3,6-diaza-2,5(2,6)-dipyridina-1(1,2)-benzenacycloundecaphane 4,4-dioxide] | 0.267 | 932
CCOC(=O)C(C)(C)CN1CCCCCCc2ccccc2-c2nc(ccc2C(F)(F)F)NS(=O)(=O)c2cccc1n2 [Compound 32, ethyl 3-(4,4-dioxido-2^3-(trifluoromethyl)-4-thia-3,6-diaza-2,5(2,6)-dipyridina-1(1,2)-benzenacyclododecaphane-6-yl)-2,2-dimethylpropanoate] | 0.295 | –
CC1(C)O[C@@H](CO)[C@H](CN2CCCCCc3ccccc3-c3nc(ccc3C(F)(F)F)NS(=O)(=O)c3cccc2n3)O1 [Compound 34, 6-(((4S,5S)-5-(hydroxymethyl)-2,2-dimethyl-1,3-dioxolan-4-yl)methyl)-2^3-(trifluoromethyl)-4-thia-3,6-diaza-2,5(2,6)-dipyridina-1(1,2)-benzenacycloundecaphane 4,4-dioxide] | 0.281 | 448
CN1CCCCCCc2ccccc2-c2nc(ccc2C(F)(F)F)NS(=O)(=O)c2cccc1n2 [Compound 35, 6-methyl-2^3-(trifluoromethyl)-4-thia-3,6-diaza-2,5(2,6)-dipyridina-1(1,2)-benzenacyclododecaphane 4,4-dioxide] | 0.331 | 715
CC1(C)OCC(CN2CCCCCc3ccccc3-c3nc(ccc3C(F)(F)F)NS(=O)(=O)c3cccc2n3)O1 (stereo not drawn) [Compound 37, 6-((2,2-dimethyl-1,3-dioxolan-4-yl)methyl)-2^3-(trifluoromethyl)-4-thia-3,6-diaza-2,5(2,6)-dipyridina-1(1,2)-benzenacycloundecaphane 4,4-dioxide] | 0.385 | 651

Second part, the molecule after the results:

EC50 [µM] | Emax [%] | Compound
2.34 | 347 | COc1ccc2nc1-c1ccccc1CCCCCN(CCCCO)c1cccc(n1)S(=O)(=O)N2 [Compound 17, 6-(4-hydroxybutyl)-2^3-methoxy-4-thia-3,6-diaza-2,5(2,6)-dipyridina-1(1,2)-benzenacycloundecaphane 4,4-dioxide]
0.36 | 337 | O=S1(=O)Nc2ccc(C(F)(F)F)c(n2)-c2ccccc2CCCCN(CCCO)c2cccc1n2 [Compound 20, 6-(3-hydroxypropyl)-2^3-(trifluoromethyl)-4-thia-3,6-diaza-2,5(2,6)-dipyridina-1(1,2)-benzenacyclodecaphane 4,4-dioxide]
0.179 | 941 | O=S1(=O)Nc2ccc(C(F)(F)F)c(n2)-c2ccccc2CCCCCCN(CCCO)c2cccc1n2 [Compound 21, 6-(3-hydroxypropyl)-2^3-(trifluoromethyl)-4-thia-3,6-diaza-2,5(2,6)-dipyridina-1(1,2)-benzenacyclododecaphane 4,4-dioxide]
0.603 | 666 | O=S1(=O)Nc2ccc(C(F)(F)F)c(n2)-c2cc(F)ccc2OCCCCN(CCCO)c2cccc1n2 [Compound 22, 1^5-fluoro-6-(3-hydroxypropyl)-2^3-(trifluoromethyl)-11-oxa-4-thia-3,6-diaza-2,5(2,6)-dipyridina-1(1,2)-benzenacycloundecaphane 4,4-dioxide]
0.668 | – | O=S1(=O)Nc2ccc(C(F)(F)F)c(n2)-c2cc(F)ccc2CCCCCN(CCCO)c2cccc1n2 [Compound 26, 1^5-fluoro-6-(3-hydroxypropyl)-2^3-(trifluoromethyl)-4-thia-3,6-diaza-2,5(2,6)-dipyridina-1(1,2)-benzenacycloundecaphane 4,4-dioxide]
0.146 | 517 | O=S1(=O)Nc2ccc(C(F)(F)F)c(n2)-c2ccccc2CCCCCN(CCCO)c2cccc1n2 [Compound 29, 6-(3-hydroxypropyl)-2^3-(trifluoromethyl)-4-thia-3,6-diaza-2,5(2,6)-dipyridina-1(1,2)-benzenacycloundecaphane 4,4-dioxide]
0.614 | 580 | O=S1(=O)Nc2ccc(C(F)(F)F)c(n2)-c2cc(F)ccc2CCCCCNc2cccc1n2 [Compound 31, 1^5-fluoro-2^3-(trifluoromethyl)-4-thia-3,6-diaza-2,5(2,6)-dipyridina-1(1,2)-benzenacycloundecaphane 4,4-dioxide]
3.3 | 119 | O=S1(=O)Nc2ccc(C(F)(F)F)c(n2)-c2ccccc2CCC(O)CNc2cccc1n2 (stereo not drawn) [Compound 33, 8-hydroxy-2^3-(trifluoromethyl)-4-thia-3,6-diaza-2,5(2,6)-dipyridina-1(1,2)-benzenacyclodecaphane 4,4-dioxide]
0.253 | 583 | O=S1(=O)Nc2ccc(C(F)(F)F)c(n2)-c2ccccc2CCCCCCNc2cccc1n2 [Compound 36, 2^3-(trifluoromethyl)-4-thia-3,6-diaza-2,5(2,6)-dipyridina-1(1,2)-benzenacyclododecaphane 4,4-dioxide]
